A short description of data set [1]: Solubility of each carboxylic acid in 1-propanol. Format: physicochemical. As to conditions: 20° C.
Data set [2] in a line: Solubility of each carboxylic acid in methanol. As to conditions: for solubility in methanol (Max): temperature not given.
Data set [3] can be described thus: Solubility of each carboxylic acid in 1-butanol. As to conditions: 20° C. The class given is physicochemical.
Data set [4] is described as follows: Solubilities of each carboxylic acid in water.
A short description of data set [5]: Solubility of carboxylic acid copper in organic solvents. The class given is physicochemical.
The nature of data set [6]: Viscosity of binder chemicals. Format: physicochemical. As to conditions: 20° C.
A short description of data set [7]: Thermal decomposition (temperature vs weight, FIG. 3). Format: physicochemical. The protocol:
FIG. 3 illustrates a graph indicating a relationship between temperature and weigh of glycerin and diglycerin.
In addition, it is preferable that the aforementioned chemicals having only a function as a binder is thermally decomposed in carbon dioxide and water when the molded body of the graphite particles is calcinated at 250-350° C. temperature, then such carbon dioxide and water evaporates into the air, in other word, no residue remains due to the thermal decomposition reaction. In such point of view, it is considered that glycerin and diglycerin as glycerin derivative being thermally decomposed at below 350° C. and having a predetermined viscosity are preferable chemicals. Viscosity of the glycerin is 1500 mPa.s at 20° C., and the thermal decomposition starts at 150° C. and finishes at 250° C. Viscosity of the diglycerin is 120 mPa.s at 20° C., and the thermal decomposition starts at 250° C. and finishes at 320° C. In response to an appropriate thickness of the coating film, glycerin or diglycerin can be diluted with methanol and mixed into the solution of carboxylic acid copper. FIG. 3 indicates relationships between temperature and weight of glycerin and diglycerin. Structure 1 indicates a molecular structure of glycerin, and structure 2 indicates a molecular structure of diglycerin. [drawing 1]

The conditions of data set [8]: 20° C.

Data on 25 compounds can be found in US20040255720A1, “Metal graphite material and production method thereof” (AISIN SEIKI KABUSHIKI KAISHA, priority 2003, published 2004).

Read-outs that look alike come from different tables or passages of the source.

Turning to `O=C(O)c1ccc(C(=O)O)cc1` [terephthalic acid], in data set [1], the “solubility in 1-propanol” value is recorded as 4.4 g is dissolved in saturated g is dissolved in saturated solution 100 cc. The “solubility in methanol (Max)” value in data set [2] is on record as “Max 16.9 g is dissolved in g is dissolved in methanol 100 g”.

On to `CCCCCCCCCCCC(=O)O` [dodecanoic acid], for which the “solubility in 1-butanol” value in data set [3] is listed as 83 g is dissolved in solvent 100 g. Further, the solubility in methanol in data set [2] (20° C.) was 120 g is dissolved in g is dissolved in methanol 100 g.

In data set [2] (20° C.), `O=C(O)CCCCCCC(=O)O` [suberic acid] displayed a solubility in methanol of 20 wt % dissolved at 20 °C. On to `O=C(O)c1cccc(C(=O)O)c1` [isophthalic acid], for which the “solubility in methanol (Max)” value in data set [2] is listed as “Max 1.7 g is dissolved in g is dissolved in methanol 100 g”. As for `O=C(O)/C=C\C(=O)O` [maleic acid], the solubility in water in data set [4] (30° C.) is 88 g is dissolved in water 100 g at. Further, the solubility in methanol in data set [2] (30° C.) is listed as 70 g is dissolved in g is dissolved in methanol 100 g. In the case of `C=C(C)C(=O)O` [methacrylic acid], the “solubility in water” value in data set [4] is “Dissolved at arbitrary ratio”.

In the case of `CCCCCCCCCCCCCC(=O)O` [myristic acid], the “solubility in 1-butanol” value in data set [3] was 28.7 g is dissolved in solvent 100 g. As to `CC(=O)CC(=O)O` [acetoacetic acid], the solubility in water in data set [4] (20° C.) stood at 20 wt % dissolved at 20 °C. The compound further showed a solubility in methanol in data set [2] (20° C.) of 20 wt % dissolved at 20 °C. Regarding `CCCCCCCCCCCC(=O)O.[Cu]` [dodecanoic acid copper], the “solubility in the methanol compared with butanoic acid copper” value in data set [5] is on record as “lower”.

For `OCC(O)CO` [glycerin], the Viscosity in data set [6] was determined as 1500 mPa.s; in data set [6] (undiluted), 1500 centipoises. Moreover, in data set [7], the “thermal decomposition finishes at (perfectly decomposed into CO2 and H2O)” value turned out to be 250 °C. As for `O=C(O)c1ccc(C(=O)O)c(C(=O)O)c1C(=O)O` [mellophanic acid], the solubility in water in data set [4] (20° C.) was 20 wt % dissolved at 20 °C. With `O=C(O)c1ccccc1C(=O)O` [phthalic acid], the “solubility in 1-propanol” value in data set [1] was 4.3 g is dissolved in saturated g is dissolved in saturated solution 100 cc. The “solubility in methanol (Max)” value in data set [2] is listed as “Max 16.4 g is dissolved in g is dissolved in methanol 100 g”. `O=C(O)C(O)c1ccccc1` (stereo not drawn) [dl mandelic acid]: the solubility in water in data set [4] (30° C.) is listed as 37.5 g is dissolved in water 100 g. Regarding `O=C(O)c1ccccc1O` [salicylic acid], the “solubility in 1-propanol” value in data set [1] is on record as 22.3 g is dissolved in saturated g is dissolved in saturated solution 100 cc. In data set [2] (20° C.), `COc1ccc(C(=O)O)cc1` [anisic acid] gave a solubility in methanol of 20 wt % dissolved at 20 °C. As to `CC(=O)CCC(=O)O` [levulinic acid], the solubility in water in data set [4] (20° C.) came to 20 wt % dissolved at 20 °C. Further, the solubility in methanol in data set [2] (20° C.) was 20 wt % dissolved at 20 °C. For `O=C(O)CCCCCCCC(=O)O` [azelaic acid], in data set [2] (20° C.), the solubility in methanol worked out at 20 wt % dissolved at 20 °C. In the case of `[Cl][Cu][Cl]` [copper chloride, cupric chloride], the “Solubility of copper chloride” value is 15.4 g dissolved in saturated solution 100 g at 20 °C in data set [8] (solvent 1-butanol), 19.7 g dissolved in saturated solution 100 g at 20 °C in data set [8] (solvent 1-propanol), 37 g dissolved in saturated solution 100 g at 20 °C in data set [8] (solvent methanol) and 42.3 g dissolved in saturated solution 100 g at 20 °C in data set [8] (solvent water). In the case of `O=C(O)CCCC(=O)O` [glutaric acid], the solubility in water in data set [4] (30° C.) was 63 g is dissolved in saturated g is dissolved in saturated solution 100 g. This compound showed a solubility in methanol in data set [2] (20° C.) of 20 wt % dissolved at 20 °C. On to `Cc1ccccc1C(=O)O` [0-toluic acid], for which, in data set [2] (20° C.), the solubility in methanol turned out to be 20 wt % dissolved at 20 °C.

Turning to `O=C(O)CCCCCC(=O)O` [pimelic acid], the solubility in methanol in data set [2] (20° C.) is 20 wt % dissolved at 20 °C. On to `O=C(O)CC(=O)O` [malonic acid], for which the solubility in water in data set [4] (30° C.) was 63 g is dissolved in saturated g is dissolved in saturated solution 100 g. For `OCC(O)COCC(O)CO` (stereo not drawn) [diglycerin], the Viscosity in data set [6] worked out at 120 mPa.s. The “thermal decomposition finishes at (perfectly decomposed into CO2 and H2O)” value in data set [7] was determined as 320 °C.

Consider `O=C(O)c1cc(C(=O)O)cc(C(=O)O)c1` [trimesic acid], for which the solubility in methanol in data set [2] (20° C.) came to 20 wt % dissolved at 20 °C. As to `C=CCC(C(=O)O)C(=O)O` [allylic malonic acid], the solubility in water in data set [4] (20° C.) is 20 wt % dissolved at 20 °C. The same compound came in with a solubility in methanol in data set [2] (20° C.) of 20 wt % dissolved at 20 °C.
